This passage reports IC50 results from patent US20260159525A1, “TRICYCLIC HETEROCYCLES” (Merck Patent GmbH, priority 2021, published 2026).

Common to all, as to type: cell-based
One experiment relates to YAP-TEAD interaction. The experiment can be described thus: SK-HEP-1 reporter assay (8x TEAD responsive elements driving NanoLuc luciferase). The note with it: Homo sapiens, SK-HEP1, SK-HEP-1 cells, 24 hour incubation. In short, it runs like this: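 SK-HEP-1 cells carrying a stably integrated 8× TEAD-element NanoLuc reporter, seeded 24 h before dosing, were treated in duplicate with a 10-point dose series (top 30 μM final, 0.3% DMSO) for 24 h at 37°C, 5% CO2. Luciferase activity read by NanoGlo luminescence; IC50 derived from it.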

The test system of a further experiment is NCI-H226 cells. The experiment can be described thus: Viability assay in NCI-H226 (Yap-dependent) cells, CyQUANT. The note with it: Homo sapiens, NCI-H226 YAP dependent cell line, 96 hour incubation, group symbols. As to the method:
(§1) Viability Assay in NCI-H226 (Yap-Dependent) and SW620 Yap KO (Yap Independent) Cells
(§2) The ability of YAP-TEAD inhibitors to inhibit tumor cell growth was evaluated using two different cell lines: NCI-H226, which is a YAP dependent cell line, and SW620 cells, where YAP and TAZ were knocked out using CRISPR to generate a YAP independent cell line.
(§3) For the assay, cells were treated in duplicates with the test compounds in a 10-point dose, 1:3 dilution steps, with the top concentration starting at 30 μM (final concentration in assay). After a 96 hour incubation at 37° C., 95% rH, and 5% CO2, a cell-permeant DNA-binding dye that stains only healthy cells (CyQUANT®, Promega) was added to the cells, allowing the quantification of cell viability.
(§4) Cell Media: The NCI-H226 cells were cultured in the following media: RPMI 1640, +10% FBS, +1× GlutaMAX, +10 mM HEPES, +0.5% Pen/Strep. The SW620-KO cells were cultured in the following media: DMEM/F-12, +10% FBS, +1× GlutaMAX, +10 mM HEPES, +0.5% Pen/Strep.
(§5) Reagents: The reagents used are listed below:
(§6) Cell culture: The cells were examined using an inverted microscope to check for health, cell density, etc. To dissociate adherent cells, the monolayer of cells was washed once with pre-warmed PBS. After removing the PBS, 3 ml pre-warmed Accutase was added to a F75 flask, dispersed evenly and the flask was allowed to sit in incubator for ˜4-5 minutes.
(§7) When a single cell suspension was obtained, 7 ml of prewarmed growth media was added and resuspended with the cells. The cell suspension was transferred to a sterile 15 ml conical centrifuge tube, and spun for 5 min at 300×g, RT. The supernatant was discarded and the pellet was resuspended in 10 ml of pre-warmed growth media.
(§8) The total cell count was determined, and 20 μl of the desired cell number was added to each well of a 384 well plate using a Multidrop Combi. The plates were then incubated for 24 hours at 37° C., 95% rH, and 5% CO2.
(§9) Compound treatment: 24 hours after seeding, the cells were treated with compounds.
(§10) A 1:333 dilution of compounds, diluted in DMSO, was made to get a final concentration of 0.3% DMSO per well. To transfer the compounds to the assay plate, 120 nl was shot from Labcyte low dead volume plates to the cell plates containing 20 μl media/well with the ECHO 555 liquid handling system. After treatment, the cells were fed with 20 μl fresh pre-warmed assay media using a Multidrop combi.
(§11) The assay plates were then incubated for 96 h at 37° C., 95% rH, and 5% CO2.
(§12) 96 h after treatment 30 μl of CyQuant® reagent was added to the assay plates using a Multidrop combi in the dark. The plates were then incubated for 1 hour at 37° C., 95% rH and 5% CO2. Thereafter, the assay plates were removed from the incubator and allowed to equilibrate to RT for 30 min in the dark without lid. Finally, they were measured using an EnVision microplate reader with a FITC bottom read program.

In another experiment the test system is SW620 Yap KO cells. Nature of the experiment: Viability assay in SW620 Yap KO (Yap independent) cells, CyQUANT. The note with it: Homo sapiens, SW-620, SW620 YAP and TAZ knocked out (YAP independent), 96 hour incubation. As to the method:
as §1, §2, §3, §4, §5, §6, §7, §8, §9, §10, §11, §12

Where [1] appears, read: n.d. (x) = not detectable below threshold x.
[2] abbreviates: number, or n.d. (x) = not detectable below threshold x.

With `CCNC(=O)c1cc2c3cn(C)nc3n(-c3ccc(C(F)(F)F)cc3)c2s1` [Compound 46, N-ethyl-4-methyl-7-[4-(trifluoromethyl)phenyl]-9-thia-4,5,7-triazatricyclo[6.3.0.0^2,6]undeca-1(8),2,5,10-tetraene-10-carboxamide], the results for the IC50 in the experiment with YAP-TEAD interaction (group symbols), in the experiment with NCI-H226 cells and in the experiment with SW620 Yap KO cells (setting [1]) were 1 to 10 nM, 1 to 100 nM and greater than 3000 nM, respectively.

For `CNC(=O)c1cc2c3cn(C)nc3n(-c3ccc(C(F)(F)F)cn3)c2s1` [Compound 47, N,4-dimethyl-7-[5-(trifluoromethyl)pyridin-2-yl]-9-thia-4,5,7-triazatricyclo[6.3.0.0^2,6]undeca-1(8),2,5,10-tetraene-10-carboxamide], the 50% inhibitory concentration (IC50) lay in the range of 10 to 100 nM in the experiment with YAP-TEAD interaction (group symbols), 1 to 100 nM with NCI-H226 cells and 1000 to 10000 nM in the experiment with SW620 Yap KO cells (group symbols).

On to `C[C@H](CO)NC(=O)c1cc2c3cn(C)nc3n(-c3ccc(C(F)(F)F)cn3)c2s1` [Compound 48, N-[(2R)-1-hydroxypropan-2-yl]-4-methyl-7-[5-(trifluoromethyl)pyridin-2-yl]-9-thia-4,5,7-triazatricyclo[6.3.0.0^2,6]undeca-1(8),2,5,10-tetraene-10-carboxamide], for which the half-inhibitory concentration (IC50) with YAP-TEAD interaction (setting [2]) is greater than 30000 nM; in the experiment with NCI-H226 cells, 1 to 100 nM; in the experiment with SW620 Yap KO cells (group symbols) it was 10000 to 30000 nM.

Regarding `CNC(=O)c1cc2c3cn(C)nc3n(-c3ccc(OC(F)(F)F)cc3)c2s1` [Compound 49, N,4-dimethyl-7-[4-(trifluoromethoxy)phenyl]-9-thia-4,5,7-triazatricyclo[6.3.0.0^2,6]undeca-1(8),2,5,10-tetraene-10-carboxamide], the concentration for half-maximal inhibition (IC50) was 10 to 100 nM in the experiment with YAP-TEAD interaction (group symbols), 1 to 100 nM with NCI-H226 cells and greater than 3000 nM with SW620 Yap KO cells (setting [1]).

As to `C[C@H](CO)NC(=O)c1cc2c3cn(C)nc3n(-c3ccc(OC(F)(F)F)cc3)c2s1` [Compound 50, N-[(2R)-1-hydroxypropan-2-yl]-4-methyl-7-[4-(trifluoromethoxy)phenyl]-9-thia-4,5,7-triazatricyclo[6.3.0.0^2,6]undeca-1(8),2,5,10-tetraene-10-carboxamide], the values for the IC50 in the experiment on YAP-TEAD interaction (group symbols), in the experiment on NCI-H226 cells and in the experiment with SW620 Yap KO cells (setting [1]) were 100 to 10000 nM, 1 to 100 nM and greater than 30000 nM, respectively.

Turning to `Cn1cc2c3cc(C(=O)O)sc3n([C@H]3CC[C@H](C(F)(F)F)CC3)c2n1` [Compound 52, 4-methyl-7-[(1r,4r)-4-(trifluoromethyl)cyclohexyl]-9-thia-4,5,7-triazatricyclo[6.3.0.0^2,6]undeca-1(8),2,5,10-tetraene-10-carboxylic acid], the IC50 in the experiment with YAP-TEAD interaction (group symbols) is 10 to 100 nM; with NCI-H226 cells, 1 to 100 nM; in the experiment on SW620 Yap KO cells (setting [1]) it was greater than 30000 nM.

In the case of `Cn1cc2c3cc(C(=O)NCCO)sc3n(-c3ccc(C(F)(F)F)cc3)c2n1` [Compound 64, N-(2-hydroxyethyl)-4-methyl-7-[4-(trifluoromethyl)phenyl]-9-thia-4,5,7-triazatricyclo[6.3.0.0^2,6]undeca-1(8),2,5,10-tetraene-10-carboxamide], the figures for the 50% inhibitory concentration (IC50) in the experiment with YAP-TEAD interaction (setting [2]), in the experiment with NCI-H226 cells and with SW620 Yap KO cells (setting [1]) were greater than 950 nM, 1 to 100 nM and greater than 3000 nM, respectively.

Regarding `Cn1cc2c3cc(C(=O)NCCN4CCOCC4)sc3n(-c3ccc(C(F)(F)F)cc3)c2n1` [Compound 65, 4-methyl-N-[2-(morpholin-4-yl)ethyl]-7-[4-(trifluoromethyl)phenyl]-9-thia-4,5,7-triazatricyclo[6.3.0.0^2,6]undeca-1(8),2,5,10-tetraene-10-carboxamide], the IC50 in the experiment on YAP-TEAD interaction (setting [2]) is greater than 300 nM; in the experiment on NCI-H226 cells it was 100 to 1000 nM; in the experiment on SW620 Yap KO cells (setting [1]) it was greater than 3000 nM.

For `Cn1cc2c3cc(C(=O)NCc4ccccn4)sc3n(-c3ccc(C(F)(F)F)cc3)c2n1` [Compound 66, 4-methyl-N-[(pyridin-2-yl)methyl]-7-[4-(trifluoromethyl)phenyl]-9-thia-4,5,7-triazatricyclo[6.3.0.0^2,6]undeca-1(8),2,5,10-tetraene-10-carboxamide], the IC50 with YAP-TEAD interaction (setting [2]) was greater than 9500 nM; in the experiment with NCI-H226 cells it was 1 to 100 nM; in the experiment with SW620 Yap KO cells (setting [1]) it was greater than 3000 nM.

As for `Cn1cc2c3cc(C(=O)N4CC[C@@H](O)C4)sc3n(-c3ccc(C(F)(F)F)cc3)c2n1` [Compound 67, (3R)-1-{4-methyl-7-[4-(trifluoromethyl)phenyl]-9-thia-4,5,7-triazatricyclo[6.3.0.0^2,6]undeca-1(8),2,5,10-tetraene-10-carbonyl}pyrrolidin-3-ol], the concentration for half-maximal inhibition (IC50) in the experiment with YAP-TEAD interaction (setting [2]) is greater than 9500 nM; in the experiment on NCI-H226 cells it was 100 to 1000 nM; in the experiment on SW620 Yap KO cells (setting [1]), greater than 3000 nM.

For `C[C@@H](CO)NC(=O)c1cc2c3cn(C)nc3n(-c3ccc(C(F)(F)F)cc3)c2s1` [Compound 68, N-[(2S)-1-hydroxypropan-2-yl]-4-methyl-7-[4-(trifluoromethyl)phenyl]-9-thia-4,5,7-triazatricyclo[6.3.0.0^2,6]undeca-1(8),2,5,10-tetraene-10-carboxamide], the IC50 in the experiment with YAP-TEAD interaction (setting [2]) is greater than 950 nM; with NCI-H226 cells, 1 to 100 nM; with SW620 Yap KO cells (setting [1]) it was greater than 3000 nM.

As to `Cn1cc2c3cc(C(=O)N4CC[C@H](O)C4)sc3n(-c3ccc(C(F)(F)F)cc3)c2n1` [Compound 69, (3S)-1-{4-methyl-7-[4-(trifluoromethyl)phenyl]-9-thia-4,5,7-triazatricyclo[6.3.0.0^2,6]undeca-1(8),2,5,10-tetraene-10-carbonyl}pyrrolidin-3-ol], the half-maximal inhibitory concentration (IC50) was greater than 30000 nM in the experiment on YAP-TEAD interaction (setting [2]), 1 to 100 nM in the experiment on NCI-H226 cells and greater than 3200 nM in the experiment with SW620 Yap KO cells (setting [1]).

Turning to `Cn1cc2c3cc(-c4noc(=O)[nH]4)sc3n(-c3ccc(C(F)(F)F)cc3)c2n1` [Compound 80, 3-{4-methyl-7-[4-(trifluoromethyl)phenyl]-9-thia-4,5,7-triazatricyclo[6.3.0.0^2,6]undeca-1(8),2,5,10-tetraen-10-yl}-4,5-dihydro-1,2,4-oxadiazol-5-one], the half-maximal inhibitory concentration (IC50) is greater than 30000 nM in the experiment with YAP-TEAD interaction (setting [2]), 100 to 1000 nM in the experiment on NCI-H226 cells and greater than 30000 nM with SW620 Yap KO cells (setting [1]).

As to `Cn1cc2c3cc(C(=O)NC4(CO)CC4)sc3n(-c3ccc(C(F)(F)F)cc3)c2n1` [Compound 91, N-[1-(hydroxymethyl)cyclopropyl]-4-methyl-7-[4-(trifluoromethyl)phenyl]-9-thia-4,5,7-triazatricyclo[6.3.0.0^2,6]undeca-1(8),2,5,10-tetraene-10-carboxamide], the IC50 is greater than 30000 nM with YAP-TEAD interaction (setting [2]), 1 to 100 nM with NCI-H226 cells and greater than 30000 nM with SW620 Yap KO cells (setting [1]).

Consider `CC[C@@H](CO)NC(=O)c1cc2c3cn(C)nc3n(-c3ccc(C(F)(F)F)cc3)c2s1` [Compound 92, N-[(2S)-1-hydroxybutan-2-yl]-4-methyl-7-[4-(trifluoromethyl)phenyl]-9-thia-4,5,7-triazatricyclo[6.3.0.0^2,6]undeca-1(8),2,5,10-tetraene-10-carboxamide], for which the values for the concentration for half-maximal inhibition (IC50) with YAP-TEAD interaction (setting [2]), in the experiment on NCI-H226 cells and with SW620 Yap KO cells (setting [1]) were greater than 30000 nM, 100 to 1000 nM and greater than 3000 nM, respectively.

With `CC[C@H](CO)NC(=O)c1cc2c3cn(C)nc3n(-c3ccc(C(F)(F)F)cc3)c2s1` [Compound 93, N-[(2R)-1-hydroxybutan-2-yl]-4-methyl-7-[4-(trifluoromethyl)phenyl]-9-thia-4,5,7-triazatricyclo[6.3.0.0^2,6]undeca-1(8),2,5,10-tetraene-10-carboxamide], the concentration for half-maximal inhibition (IC50) with YAP-TEAD interaction (group symbols) was 10 to 100 nM; in the experiment with NCI-H226 cells, 1 to 100 nM; with SW620 Yap KO cells (setting [1]), greater than 3000 nM.

`Cn1nc2c3cc(C(=O)O)sc3n(-c3ccc(C(F)(F)F)cc3)c2n1` [Compound 95, 4-methyl-7-[4-(trifluoromethyl)phenyl]-9-thia-3,4,5,7-tetraazatricyclo[6.3.0.0^2,6]undeca-1(8),2,5,10-tetraene-10-carboxylic acid]: the IC50 in the experiment on YAP-TEAD interaction (group symbols) is 1 to 10 nM; with NCI-H226 cells, 1 to 100 nM; in the experiment on SW620 Yap KO cells (setting [1]) it was greater than 30000 nM.
